Data on 19 molecules can be found in patent publication US20140011799A1 (Bristol-Myers Squibb Company, priority 2012, published 2014).

As usually defined, the IC50 is the concentration needed to halve the response being measured.

Read-outs that look alike come from different tables or passages of the source.

One experiment concerns the target T1, hepatic lipase (HL) (Homo sapiens, UniProt P11150).
T1 construct: made in house; host or cells: COS cells (conditioned medium, partially purified)
T1 sequence (P11150 23-499): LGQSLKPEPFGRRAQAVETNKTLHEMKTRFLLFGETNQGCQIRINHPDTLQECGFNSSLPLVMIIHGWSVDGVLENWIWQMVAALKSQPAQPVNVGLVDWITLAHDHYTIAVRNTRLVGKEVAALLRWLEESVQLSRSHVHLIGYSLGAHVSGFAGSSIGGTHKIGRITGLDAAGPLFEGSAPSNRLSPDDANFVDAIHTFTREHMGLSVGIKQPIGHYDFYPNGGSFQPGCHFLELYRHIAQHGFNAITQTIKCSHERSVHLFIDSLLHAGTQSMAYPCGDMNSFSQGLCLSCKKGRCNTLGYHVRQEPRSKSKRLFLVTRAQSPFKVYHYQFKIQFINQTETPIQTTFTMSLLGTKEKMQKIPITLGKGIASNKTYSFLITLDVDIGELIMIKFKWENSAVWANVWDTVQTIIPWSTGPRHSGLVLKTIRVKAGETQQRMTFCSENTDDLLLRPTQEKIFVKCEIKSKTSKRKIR
Put plainly: Hepatic lipase (HL) enzymatic assay, fluorescent substrate A10070 in DMPG vesicles. It counts as biochemical. The conditions noted are these: compound preincubated 30 min at 37° C. The procedure, abridged: (§1)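 Vesicles prepared: A10070 dried with DMPG, resuspended in HEPES pH 8.0/NaCl/EDTA, sonicated on ice. Enzyme incubated with compound 30 min at 37° C. Reaction started with 1:10 diluted vesicles. Fluorescence (490/530 nm) followed 60 min; slope from 300–900 secs gives rate.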

The next experiment has as its target T2, Endothelial lipase (EL) (Homo sapiens, UniProt Q9Y5X9).
T2 construct: HT-1080 cells that were transformed using RAGE technology (Athersys) to overexpress endogenous EL; endogenous in cells; conditioned medium used
T2 sequence (Q9Y5X9 21-500): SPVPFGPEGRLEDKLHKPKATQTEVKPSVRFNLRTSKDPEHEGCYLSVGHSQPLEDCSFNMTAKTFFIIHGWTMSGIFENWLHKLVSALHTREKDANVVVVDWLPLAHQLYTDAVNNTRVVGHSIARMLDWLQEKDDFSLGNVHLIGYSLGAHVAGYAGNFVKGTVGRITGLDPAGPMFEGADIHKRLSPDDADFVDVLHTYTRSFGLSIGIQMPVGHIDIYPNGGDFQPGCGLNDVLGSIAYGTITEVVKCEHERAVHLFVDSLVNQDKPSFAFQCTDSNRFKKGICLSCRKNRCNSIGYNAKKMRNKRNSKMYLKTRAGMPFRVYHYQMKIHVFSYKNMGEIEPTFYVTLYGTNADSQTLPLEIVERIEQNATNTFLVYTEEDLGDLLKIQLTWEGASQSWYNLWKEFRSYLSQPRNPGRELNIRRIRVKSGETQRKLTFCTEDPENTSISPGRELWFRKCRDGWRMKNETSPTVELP
Put plainly: Endothelial lipase (EL) enzymatic assay, fluorescent substrate A10070 in DMPG vesicles. It counts as biochemical. The conditions noted are these: compound preincubated 30 min at 37° C. The procedure, abridged: as §1

[1] abbreviates: HL partially purified from conditioned media of COS cells, read-out: HL IC50.
Setting [2] is: EL from conditioned media of HT-1080 cells, read-out: EL IC50.

Turning to `NS(=O)(=O)NCc1nnc(C(c2nc3ccc(-c4cccc(C(=O)N5CCC(=O)CC5)c4)cc3s2)S(=O)(=O)CCC(F)(F)F)o1` (centres unmarked) [Example 194, N-((5-((6-(3-((4-oxo-1-piperidinyl)carbonyl)phenyl)-1,3-benzothiazol-2-yl)((3,3,3-trifluoropropyl)sulfonyl)methyl)-1,3,4-oxadiazol-2-yl)methyl) sulfamide], the IC50 on hepatic lipase (HL) (HL IC50, HL partially purified from conditioned media of COS cells) was 0.171 µM; at Endothelial lipase (EL) (EL IC50, EL from conditioned media of HT-1080 cells), < 0.01 µM.

As to `CC(C)C(O)C(=O)NCc1nnc(C(c2nc3ccc(-c4ccccc4)cc3s2)S(C)(=O)=O)o1` (centres unmarked) [Example 154, 2-hydroxy-3-methyl-N-((5-((methylsulfonyl)(6-phenyl-1,3-benzothiazol-2-yl)methyl)-1,3,4-oxadiazol-2-yl)methyl)butanamide], the IC50 on hepatic lipase (HL) (setting [1]) is 0.025 µM; at Endothelial lipase (EL) (setting [2]), 0.054 µM.

As to `CS(=O)(=O)C(c1nnc(CC2SC(=O)NC2=O)o1)c1nc2ccc(C3=CCOCC3)cc2s1` (centres unmarked) [Example 99, 5-((5-((6-(3,6-dihydro-2H-pyran-4-yl)-1,3-benzothiazol-2-yl)(methylsulfonyl)methyl)-1,3,4-oxadiazol-2-yl)methyl)-1,3-thiazolidine-2,4-dione], the IC50 at hepatic lipase (HL) (setting [1]) is 0.142 µM; at Endothelial lipase (EL) (setting [2]) it was < 0.01 µM.

For the molecule `COCCS(=O)(=O)C(c1nnc(CNS(N)(=O)=O)o1)c1nc2ccc(-c3cc(F)cc(Cl)c3)cc2s1` (centres unmarked) [Example 151, N-((5-((6-(3-chloro-5-fluorophenyl)-1,3-benzothiazol-2-yl)((2-methoxyethyl)sulfonyl)methyl)-1,3,4-oxadiazol-2-yl)methyl)sulfamide], the IC50 at hepatic lipase (HL) (setting [1]) and on Endothelial lipase (EL) (setting [2]) was < 0.01 µM each time.

On to `Cn1cc(-c2cc3sc(C(c4nnc(CNC(=O)OC(C)(C)C)o4)S(=O)(=O)Cc4ccccc4)nc3cc2F)cn1` (centres unmarked) [Example 166, tert butyl ((5-((benzylsulfonyl)(5-fluoro-6-(1-methyl-1H-pyrazol-4-yl)-1,3-benzothiazol-2-yl)methyl)-1,3,4-oxadiazol-2-yl)methyl)carbamate], for which the values for the IC50 at hepatic lipase (HL) (setting [1]) and on Endothelial lipase (EL) (setting [2]) were 0.032 µM and 0.023 µM, respectively.

In the case of `CS(=O)(=O)C(c1nnc(CC2SC(=O)NC2=O)o1)c1nc2cc(C(F)(F)F)c(-c3ccccc3)cc2s1` (centres unmarked) [Example 164, 5-((5-((methylsulfonyl)(6-phenyl-5-(trifluoromethyl)-1,3-benzothiazol-2-yl)methyl)-1,3,4-oxadiazol-2-yl)methyl)-1,3-thiazolidine-2,4-dione], the IC50 at hepatic lipase (HL) (setting [1]) is 0.022 µM; on Endothelial lipase (EL) (setting [2]), < 0.01 µM.

On to `COCCNC(=O)c1cccc(-c2ccc3nc(C(c4nnc(CNS(N)(=O)=O)o4)S(C)(=O)=O)sc3c2)c1` (centres unmarked) [Example 262, 3-{2-[methanesulfonyl({5-[(sulfamoylamino)methyl]-1,3,4-oxadiazol-2-yl})methyl]-1,3-benzothiazol-6-yl}-N-(2-methoxyethyl) benzamide], for which the IC50 amounted to 0.045 µM on hepatic lipase (HL) (setting [1]) and 0.014 µM on Endothelial lipase (EL) (setting [2]).

Regarding `CC(C)(C)OC(=O)NS(=O)(=O)NCc1nnc(C(c2nc3ccc(-c4cc(F)cc(Cl)c4)cc3s2)S(=O)(=O)Cc2ccccc2)o1` (centres unmarked) [Example 142, tert-butyl (((5-((benzylsulfonyl)(6-(3-chloro-5-fluorophenyl)-1,3-benzothiazol-2-yl)methyl)-1,3,4-oxadiazol-2-yl)methyl)sulfamoyl)carbamate], the IC50 on hepatic lipase (HL) (setting [1]) and on Endothelial lipase (EL) (setting [2]) was < 0.01 µM each time.

As for `Cc1nc(C)c(-c2ccc3nc(C(c4nnc(CC5SC(=O)NC5=O)o4)S(C)(=O)=O)sc3c2)s1` (centres unmarked) [Example 102, 5-((5-((6-(2,4-dimethyl-1,3-thiazol-5-yl)-1,3-benzothiazol-2-yl)(methylsulfonyl)methyl)-1,3,4-oxadiazol-2-yl)methyl)-1,3-thiazolidine-2,4-dione], the IC50 at hepatic lipase (HL) (setting [1]) and on Endothelial lipase (EL) (setting [2]) was < 0.01 µM throughout.

`COCCS(=O)(=O)C(c1nnc(CNS(=O)(=O)NC(=O)OC(C)(C)C)o1)c1nc2ccc(-c3cnn(C)c3)cc2s1` (centres unmarked) [Example 115, tert-butyl (((5-(((2-methoxyethyl)sulfonyl)(6-(1-methyl-1H-pyrazol-4-yl)-1,3-benzothiazol-2-yl)methyl)-1,3,4-oxadiazol-2-yl)methyl)sulfamoyl)carbamate]: the IC50 is > 25 µM on hepatic lipase (HL) (setting [1]) and 0.117 µM at Endothelial lipase (EL) (setting [2]).

In the case of `CC1(Cc2nnc(C(c3nc4ccc(-c5cccc(C(=O)NC6CC6)c5)cc4s3)S(C)(=O)=O)o2)NC(=O)NC1=O` (centres unmarked) [Example 225, N-cyclopropyl-3-{2-[methanesulfonyl({5-[(4-methyl-2,5-dioxo-imidazolidin-4-yl)methyl]-1,3,4-oxadiazol-2-yl})methyl]-1,3-benzothiazol-6-yl}benzamide], the half-inhibitory concentration (IC50) at hepatic lipase (HL) (setting [1]) came to 0.051 µM; at Endothelial lipase (EL) (setting [2]), 0.005 µM.

As to `CC1(Cc2nnc(C(c3nc4ccc(-c5cccc(C(=O)N6CC[C@@H](O)C6)c5)cc4s3)S(C)(=O)=O)o2)NC(=O)NC1=O` (stereo partly drawn) [Example 219, 5-({5-[(6-{3-[(3R)-3-hydroxypyrrolidine-1-carbonyl]phenyl}-1,3-benzothiazol-2-yl) (methanesulfonyl)methyl]-1,3,4-oxadiazol-2-yl}methyl)-5-methyl-imidazolidine-2,4-dione], the IC50 at hepatic lipase (HL) (setting [1]) was determined as 2.3 µM; at Endothelial lipase (EL) (setting [2]), 0.002 µM.

As to `NCCS(=O)(=O)C(c1nnc(CC2SC(=O)NC2=O)o1)c1nc2cc(F)c(-c3ccccc3)cc2s1` (centres unmarked) [Example 186, 5-((5-(((2-aminoethyl)sulfonyl)(5-fluoro-6-phenyl-1,3-benzothiazol-2-yl)methyl)-1,3,4-oxadiazol-2-yl)methyl)-1,3-thiazolidine-2,4-dione], the 50% inhibitory concentration (IC50) at hepatic lipase (HL) (setting [1]) is 0.049 µM; at Endothelial lipase (EL) (setting [2]), < 0.01 µM.

On to `CCCOCCCNC(=O)Cc1nnc(C(c2nc3ccc(-c4ccc(C(=O)N5CCOCC5)cc4)cc3s2)S(C)(=O)=O)o1` (centres unmarked) [Example 175, 2-(5-((Methylsulfonyl)(6-(4-(4-morpholinylcarbonyl)phenyl)-1,3-benzothiazol-2-yl)methyl)-1,3,4-oxadiazol-2-yl)-N-(3-propoxypropyl)acetamide], for which the concentration for half-maximal inhibition (IC50) turned out to be 0.089 µM on hepatic lipase (HL) (setting [1]) and 0.012 µM on Endothelial lipase (EL) (setting [2]).

With `NS(=O)(=O)NCc1nnc(C(c2nc3ccc(-c4ccc(C(=O)N5CCOCC5)c(Cl)c4)cc3s2)S(=O)(=O)Cc2ccccc2)o1` (centres unmarked) [Example 149, N-((5-((benzylsulfonyl)(6-(3-chloro-4-(4-morpholinylcarbonyl)phenyl)-1,3-benzothiazol-2-yl)methyl)-1,3,4-oxadiazol-2-yl)methyl)sulfamide], the figures for the IC50 at hepatic lipase (HL) (setting [1]) and at Endothelial lipase (EL) (setting [2]) were 0.121 µM and < 0.01 µM, respectively.

For `Cn1cc(-c2ccc3nc(C(c4nnc(CNC(=O)OC(C)(C)C)o4)S(C)(=O)=O)sc3c2)cn1` (centres unmarked) [Example 98, tert-butyl ((5-((6-(1-methyl-1H-pyrazol-4-yl)-1,3-benzothiazol-2-yl)(methylsulfonyl)methyl)-1,3,4-oxadiazol-2-yl)methyl) carbamate], the IC50 at hepatic lipase (HL) (setting [1]) is > 25 µM; at Endothelial lipase (EL) (setting [2]) it was 0.168 µM.

Turning to `O=C(Cc1nnc(C(c2nc3ccc(-c4ccc(C(=O)N5CCOCC5)cc4)cc3s2)S(=O)(=O)Cc2ccccc2)o1)NC1CCCC1` (centres unmarked) [Example 180, 2-(5-((benzylsulfonyl)(6-(4-(4-morpholinylcarbonyl)phenyl)-1,3-benzothiazol-2-yl)methyl)-1,3,4-oxadiazol-2-yl)-N-cyclopentylacetamide], the IC50 at hepatic lipase (HL) (setting [1]) is 0.044 µM; on Endothelial lipase (EL) (setting [2]), < 0.01 µM.

On to `CS(=O)(=O)C(c1nnc(CNS(N)(=O)=O)o1)c1nc2cc(-c3ccc(C(=O)N4CCOCC4)cc3)ccc2s1` (centres unmarked) [Example 243, N-({5-[methanesulfonyl({5-[4-(morpholine-4-carbonyl)phenyl]-1,3-benzothiazol-2-yl})methyl]-1,3,4-oxadiazol-2-yl}methyl)aminosulfonamide], for which the IC50 was 0.119 µM at hepatic lipase (HL) (setting [1]) and 0.005 µM at Endothelial lipase (EL) (setting [2]).

As to `NS(=O)(=O)NCc1nnc(C(c2nc3ccc(-c4ccc(C(F)(F)F)cc4)cc3s2)S(=O)(=O)Cc2ccccc2)o1` (centres unmarked) [Example 128, N-((5-((benzylsulfonyl)(6-(4-(trifluoromethyl)phenyl)-1,3-benzothiazol-2-yl)methyl)-1,3,4-oxadiazol-2-yl)methyl) sulfamide], the IC50 on hepatic lipase (HL) (setting [1]) and at Endothelial lipase (EL) (setting [2]) was < 0.01 µM throughout.
